These are literature values, as cited in US9155756B2, “Method for the prevention and treatment of sepsis” (Universiteit Maastricht, priority 2011, dated 2015).

The test system of data set [1] is patients with severe sepsis.
The subject of data set [2] is patients with septic shock. Conditions: low dose for 5-7 days.

Take drotrecogin alfa: in data set [1] (patients with multi-organ failure, large randomized clinical trials), the “Number needed to treat (NNT) for reduced mortality” value was 16. In addition, in data set [1] (severe sepsis, decreased from about 31%), the Mortality result is on record as “about 25%”.

For `C[C@]12CCC(=O)C=C1CC[C@@H]1[C@@H]2[C@@H](O)C[C@@]2(C)[C@H]1CC[C@]2(O)C(=O)CO` [hydrocortisone], in data set [2], the Clinical outcome is listed as “improved outcomes”.
